pIC50: −log10 of the molar value. The source made the active and inactive calls. The calls are words filed in the database; no cut-off is given here.
What was measured:
[1] = biological target: T1, RAC-alpha serine/threonine-protein kinase (Homo sapiens, UniProt P31749); experiment: Antagonist activity at human AKT1-PH domain (1 to 121 residues) assessed as reduction of AKT1-PH interaction with PC/PE/PS/PI(3,4,5)P3 at 50 uM after 30 mins by competitive SPR analysis relative to control
[2] = biological target: T2, Cytohesin-3 (Mus musculus) (UniProt O08967); experiment: Antagonist activity at mouse GRP1-PH domain (1 to 127 residues) assessed as reduction in PI(3,4,5)P3/GRP1-PH interaction at 50 uM after 30 mins by competitive SPR analysis relative to control
T2 sequence (whole entry): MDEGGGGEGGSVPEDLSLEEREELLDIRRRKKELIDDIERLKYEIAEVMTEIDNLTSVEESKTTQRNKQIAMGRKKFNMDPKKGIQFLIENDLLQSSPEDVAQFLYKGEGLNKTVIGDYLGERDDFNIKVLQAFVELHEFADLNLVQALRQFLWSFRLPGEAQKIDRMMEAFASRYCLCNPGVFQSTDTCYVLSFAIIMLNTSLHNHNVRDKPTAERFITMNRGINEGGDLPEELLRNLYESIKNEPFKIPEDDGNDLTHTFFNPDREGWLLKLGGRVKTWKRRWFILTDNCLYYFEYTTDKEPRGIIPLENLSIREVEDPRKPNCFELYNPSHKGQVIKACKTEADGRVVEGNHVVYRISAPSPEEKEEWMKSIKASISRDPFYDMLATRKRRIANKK

[3] = biological target: T3, Tyrosine-protein kinase BTK (Homo sapiens, UniProt Q06187); experiment: Antagonist activity at human BTK-PH domain (2 to 170 residues) assessed as reduction in PI(3,4,5)P3/BTK-PH interaction at 50 uM after 30 mins by competitive SPR analysis relative to control
[4] = biological target: T1, RAC-alpha serine/threonine-protein kinase; experiment: Antagonist activity at human AKT1-PH domain (1 to 121 residues) assessed as reduction of AKT1-PH interaction with PC/PE/PS/PI(3,4,5)P3 after 30 mins by competitive SPR analysis
Cytohesin-3 = biological target: T4, Cytohesin-3 (Mus musculus, UniProt O08967); experiment: Antagonist activity at mouse GRP1-PH domain (1 to 127 residues) assessed as reduction in PI(3,4,5)P3/GRP1-PH interaction after 30 mins by competitive SPR analysis
T4 sequence (O08967 whole entry): T2 sequence (whole entry)

[5] = biological target: T3, Tyrosine-protein kinase BTK; experiment: Antagonist activity at human BTK-PH domain (2 to 170 residues) assessed as reduction in PI(3,4,5)P3/BTK-PH interaction after 30 mins by competitive SPR analysis
[6] = biological target: Pleckstrin homology domain-containing family A member 1 (Homo sapiens, UniProt Q9HB21); experiment: Antagonist activity at human Tapp1-PH domain (180 to 305 residues) assessed as reduction in PI(3,4)P2/Tapp1-PH interaction after 30 mins by competitive SPR analysis
[7] = biological target: T1, RAC-alpha serine/threonine-protein kinase; experiment: Antagonist activity at human AKT1-PH domain (1 to 121 residues) assessed as reduction in PI(3,4,5)P3/AKT1-PH interaction by FRET analysis
[8] = biological target: T1, RAC-alpha serine/threonine-protein kinase; experiment: Antagonist activity at GST-tagged human AKT1-PH domain (1 to 121 residues) assessed as reduction in PC/PE/PS/PI(3,4,5)P3/AKT1-PH interaction at 50 uM by liposome pull-down assay
[9] = Cytotoxicity against human MDA-MB-231 cells assessed as inhibition of cell proliferation at 1 to 100 uM after 48 hrs by MTT assay; type: cell-based; details: read-out: %max
[10] = biological target: T1, RAC-alpha serine/threonine-protein kinase; experiment: Inhibition of AKT1 phosphorylation at Thr-308 in human MDA-MB-231 cells at 25 uM after 48 hrs by immunoblot analysis; type: cell-based
[11] = Effect on membrane fluidity in PC/PE/PS liposome assessed as DPH probe anisotropy changes at 15 uM incubated for 30 mins by fluorescence anisotropic analysis; type: ADME; details: artificial membrane, 0.5 h
[12] = Effect on membrane fluidity in PC/PE/PS liposome assessed as NBD-PE probe anisotropy changes at 15 uM incubated for 30 mins by fluorescence anisotropic analysis; type: ADME; details: artificial membrane, 0.5 h
[13] = Effect on surface charge of PC/PE/PS/PI(3,4,5)P3 liposome by measuring zeta-potential by light scattering spectrometric analysis; type: physicochemical; details: artificial membrane
[14] = biological target: T1, RAC-alpha serine/threonine-protein kinase; experiment: Induction of human AKT1-PH aggregration assessed as mean hydrodynamic diameter after 10 mins dynamic light scattering assay
[15] = biological target: T1, RAC-alpha serine/threonine-protein kinase; experiment: Binding affinity to human AKT1-PH domain assessed as change in beta-sheet content at 1:3 molar ratio of protein to compound by CD spectra analysis
[16] = biological target: T1, RAC-alpha serine/threonine-protein kinase; experiment: Binding affinity to human AKT1-PH domain assessed as enthalpy change by isothermal titration calorimetric analysis
[17] = biological target: T1, RAC-alpha serine/threonine-protein kinase; experiment: Binding affinity to human AKT1-PH domain assessed as entropy change by isothermal titration calorimetric analysis
[18] = biological target: T5, 1-phosphatidylinositol 4,5-bisphosphate phosphodiesterase delta-1 (Rattus norvegicus, UniProt P10688); experiment: Antagonist activity at rat PLCdelta1-PH domain assessed as reduction in PI(4,5)P2/PLCdelta1-PH interaction after 30 mins by competitive SPR analysis
T5 sequence (P10688 whole entry): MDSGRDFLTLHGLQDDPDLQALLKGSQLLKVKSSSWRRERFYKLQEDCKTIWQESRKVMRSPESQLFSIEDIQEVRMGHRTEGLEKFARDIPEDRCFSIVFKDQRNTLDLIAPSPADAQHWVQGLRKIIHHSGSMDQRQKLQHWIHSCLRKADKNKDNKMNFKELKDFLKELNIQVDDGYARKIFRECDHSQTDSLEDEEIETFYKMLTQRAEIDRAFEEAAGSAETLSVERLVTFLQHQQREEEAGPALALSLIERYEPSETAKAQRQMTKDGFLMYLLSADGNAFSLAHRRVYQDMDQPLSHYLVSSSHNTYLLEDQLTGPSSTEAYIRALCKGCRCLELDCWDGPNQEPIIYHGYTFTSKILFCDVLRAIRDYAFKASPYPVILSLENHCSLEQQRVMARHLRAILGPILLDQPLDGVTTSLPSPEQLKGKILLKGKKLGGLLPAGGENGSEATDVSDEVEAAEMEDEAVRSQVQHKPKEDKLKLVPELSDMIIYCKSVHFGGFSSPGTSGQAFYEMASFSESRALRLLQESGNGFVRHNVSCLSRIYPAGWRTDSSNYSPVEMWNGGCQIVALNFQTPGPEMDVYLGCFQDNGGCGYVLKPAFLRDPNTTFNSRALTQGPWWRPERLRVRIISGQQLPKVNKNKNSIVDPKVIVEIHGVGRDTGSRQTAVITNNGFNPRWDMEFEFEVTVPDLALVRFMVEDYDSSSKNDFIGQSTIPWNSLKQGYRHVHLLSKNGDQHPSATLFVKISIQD

[19] = Cytotoxicity against human MDA-MB-231 cells assessed as inhibition of cell proliferation at 100 uM after 48 hrs by MTT assay; type: cell-based

T1 sequence (P31749 whole entry, the tested form may be a part): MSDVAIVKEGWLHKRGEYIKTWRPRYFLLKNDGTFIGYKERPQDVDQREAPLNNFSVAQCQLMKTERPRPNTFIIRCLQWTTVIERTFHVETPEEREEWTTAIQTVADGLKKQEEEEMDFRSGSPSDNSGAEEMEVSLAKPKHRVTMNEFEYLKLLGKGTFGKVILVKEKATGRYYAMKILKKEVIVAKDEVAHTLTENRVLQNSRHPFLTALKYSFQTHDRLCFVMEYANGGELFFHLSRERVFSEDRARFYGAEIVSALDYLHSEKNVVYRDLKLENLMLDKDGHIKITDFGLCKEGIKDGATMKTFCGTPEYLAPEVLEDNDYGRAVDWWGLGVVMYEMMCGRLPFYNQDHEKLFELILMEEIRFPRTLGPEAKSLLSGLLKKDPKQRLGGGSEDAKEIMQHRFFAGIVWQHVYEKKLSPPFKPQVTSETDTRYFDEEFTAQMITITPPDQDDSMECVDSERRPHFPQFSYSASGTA
T3 sequence (Q06187 whole entry, the tested form may be a part): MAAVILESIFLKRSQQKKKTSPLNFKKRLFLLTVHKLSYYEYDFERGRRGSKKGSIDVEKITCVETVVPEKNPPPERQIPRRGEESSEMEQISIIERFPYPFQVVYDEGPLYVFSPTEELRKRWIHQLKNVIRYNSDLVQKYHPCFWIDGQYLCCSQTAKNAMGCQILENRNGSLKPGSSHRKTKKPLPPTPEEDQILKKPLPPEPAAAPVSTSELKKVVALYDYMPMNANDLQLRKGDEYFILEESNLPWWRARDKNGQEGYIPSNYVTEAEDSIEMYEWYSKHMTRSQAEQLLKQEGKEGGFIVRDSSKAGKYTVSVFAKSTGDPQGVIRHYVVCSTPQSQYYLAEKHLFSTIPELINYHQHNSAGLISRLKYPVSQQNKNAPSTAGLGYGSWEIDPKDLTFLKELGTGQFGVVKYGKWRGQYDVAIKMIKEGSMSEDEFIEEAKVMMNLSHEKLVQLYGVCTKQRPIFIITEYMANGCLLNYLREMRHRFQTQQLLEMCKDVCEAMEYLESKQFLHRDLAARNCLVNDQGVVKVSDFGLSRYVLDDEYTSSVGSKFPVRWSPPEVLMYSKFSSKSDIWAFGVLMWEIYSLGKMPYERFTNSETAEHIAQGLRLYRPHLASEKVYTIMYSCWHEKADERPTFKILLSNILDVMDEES
Sequence of Pleckstrin homology domain-containing family A member 1 (Q9HB21 whole entry, the tested form may be a part): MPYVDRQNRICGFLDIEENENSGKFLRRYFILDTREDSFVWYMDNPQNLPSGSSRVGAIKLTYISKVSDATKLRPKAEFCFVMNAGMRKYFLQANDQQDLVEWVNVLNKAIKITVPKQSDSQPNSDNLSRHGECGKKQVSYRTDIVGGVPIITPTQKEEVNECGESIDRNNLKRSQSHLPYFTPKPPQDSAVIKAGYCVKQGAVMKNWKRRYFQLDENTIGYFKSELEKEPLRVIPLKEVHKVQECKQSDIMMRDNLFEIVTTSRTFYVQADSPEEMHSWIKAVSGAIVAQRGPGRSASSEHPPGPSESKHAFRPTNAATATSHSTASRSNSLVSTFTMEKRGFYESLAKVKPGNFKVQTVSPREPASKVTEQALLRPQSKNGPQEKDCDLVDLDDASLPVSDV

Row | SMILES | inhibition [1] | inhibition [2] | inhibition [3] | pIC50 [4] | inhibition [4] | pIC50 (Cytohesin-3) | pIC50 [5] | pIC50 [6] | inhibition [7] | inhibition [8] | Emax at 48 h [9] | Activity [11] | Activity [12] | Activity [13] | Activity [14] | Activity [15] | Activity [16] | Activity [17] | pIC50 [18] | also measured
1 | N=C(N/C(=N/O)c1nonc1N)N1CCCN=C1N | 92% | 67% | 11% | 5.49 | Dose-dependent effect | 4.94 | 4.33 | 5.30 | Dose-dependent effect | Active | 20% | Not Active | Active | Not Active | 190 nm | Active | Active | Active | 4.55 | inhibition [10]: Active
2 | N=C(N/C(=N/O)c1nonc1N)c1ccccc1 | 54% | 55% |  | 5.14 |  | 4.94 |  |  |  |  | 20% | Not Active | Active |  |  |  |  |  |  | 
3 | N=C(N/C(=N/O)c1nonc1N)c1ccccc1N | 74% | 59% | 79% | 5.06 |  | 4.78 | 5.50 |  |  |  | 20% | Not Active | Active |  |  |  |  |  |  | 
4 | N=C(N/C(=N/O)c1nonc1N)c1ccccc1Br | 80% |  |  | 4.79 |  |  |  |  |  |  | 20% | Not Active | Active |  |  |  |  |  |  | 
5 | N=C(N)NC(=N)N/C(=N/O)c1nonc1N | 95% | 56% | 40% | 5.73 | Dose-dependent effect | 4.60 | 4.96 | 4.55 | Dose-dependent effect | Active |  | Not Active | Active | Not Active | 190 nm | Active | Active | Active | 4.27 | inhibition at 48 h, 100 µM [19]: 10%
